Laboratory results: patent EP0714404B1, “ANTI-INFLAMMATORY PEPTIDES” (CURATIVE TECHNOLOGIES, INC., priority 1993, dated 1995)
Read-outs that look alike come from different tables or passages of the source. Residues, ends and D or L forms follow the SMILES beside them.

Columns and labels:
[1] = system: Arachidonic Acid Induced Myeloperoxidase Activity in Mouse Ear; experiment: myeloperoxidase activity in AA-treated mouse ear tissue (marker for PMNs); type: in vivo, mice; details: minipump
Experimental: Myeloperoxidase activity in ear tissue was measured as a marker for the presence or absence of polymorphonuclear leukocytes (PMNs) (Barone et al., 1991, J. Neurosci. Res. 29:336-345). After measurement of ear thickness, ears were dissected from the mice and homogenized in 50mM Tris-HCL, pH 7.4 at 4°C to give a 10% (w/v) homogenate. Aliquots of the homogenate were used to determine the amount of myeloperoxidase activity present in the tissue using o-dianisidine (Sigma Chem Co., St. Louis MO) and hydrogen peroxide as substrates and monitoring chromophore generation at 460 nm (Barone et al., 1991, J. Neurosci. Res. 29:336-345).

neutrophils = experiment: neutrophil chemotaxis to f-Met-Leu-Phe (Neuroprobe chambers); type: cell-based; details: fluorescence at 530 nm, 1 hr; FIGURE 3
Experimental: The ability of CT-112 (SEQ. ID NO: 1) to inhibit chemotaxis of neutrophils in response to a variety of agents was assessed using Neuroprobe chemotaxis chambers. For these assays, neutrophils were resuspended in Hank's balanced salt solution with Ca^2+ and Mg^2+ to give a 5 x 10^6 cells/ml suspension after the cells were labeled with 1',7'-bis(2-carboxyethyl)-5-(6)-carboxyfluorescein. The neutrophils were exposed to CT-112 (SEQ. ID NO: 1) for approximately 15 min prior to addition to the chemotaxis chambers. CT-112 (SEQ. ID NO: 1) was present in both the top and bottom of the chambers, and the chemoattractant, either f-Met-Leu-Phe, leukotriene B4 or interleukin-8, was added to the bottom of chamber. Cells which had migrated through the membrane were determined by fluorescence at 530 nm at 1 hr after initiation of the assay.

Inflammatory Cell Influx = experiment: carrageenan-induced model of peritonitis, inflammatory cell influx; type: in vivo, Mice; details: pump 60 mg CT-112/kg/day
Experimental: (§1) Mice (C57BL/6UAF, females, 12 weeks old) were implanted with Alzet mini pumps set to deliver 60 mg CT-112/kg/day. Six days post-implantation, the mice were challenged with an intraperitoneal injection of 0.3 ml of carrageenan in PBS (10 mg/ml). The peritoneal cavity was lavaged with 15 ml of Hank's Balanced Salt Solution (Ca^2+- and Mg^2+-free) at 24, 48 and 72 hr post-challenge. The lavage fluid was centrifuged (500 g, 5 min), fixed with LeukoStat fixative and stained with LeukoStat staining solution. The slides were analyzed under a microscope for the different types of inflammatory cells, such as macrophages, lymphocytes and neutrophils. At the 48-hr time point, 5 control mice were also lavaged.

leukotriene B4 (LTB4) = experiment: carrageenan peritonitis, LTB4 content of peritoneal lavage fluid; type: in vivo, Mice; details: 60 mg/kg/day; 24 hr post-challenge
Experimental: as §1
In a separate study, the peritoneal lavage fluid was analyzed for total leukotriene B4 (LTB4) and prostaglandin E2 (PGE2) content at 24 hr post-challenge (Griswold et al., 1991, Biochem. Pharmacol. 42(4):825-831).

[2] = system: collagen-induced arthritis; type: in vivo, Mice
Experimental: Mice (DBA/1, 10-12 weeks old, Jackson Laboratories) were randomly assigned to one of 3 groups of […]. CT-112 (SEQ. ID NO: 1) was prepared for injection by dissolving in sterile PBS. CT-112 (SEQ. ID NO: 1) was administered daily according to the following schedule: • a) Control animals (0.1 ml of sterile PBS) (7 mice); • b) Low dose CT-112 (0.1 ml sterile PBS containing 0.25 mg CT-112 at 10 mg/kg) (8 mice); and • c) High dose CT-112 (0.1 ml sterile PBS containing 2.5 mg of CT-112 at 100 mg/kg) (8 mice). Three days after initial dosing with CT-112 (SEQ. ID NO: 1), all mice were injected intradermally at the base of the tail with 100 µg of bovine type-II collagen in Freund's complete adjuvant. Mice were monitored daily for the onset of disease, and weighed twice weekly with overall health status noted. Arthritis-affected animals were clinically assessed 5 times per week until 10 weeks post-immunization. Paw measurements were taken 3 times per week. Mice lacking signs of arthritis 10 weeks post-immunization were considered disease-free. All mice were pre-bled prior to the start of the trial, subsequently again at 2 and 4 weeks post-immunization, again at the onset of CIA, and finally at the termination of the study. Sera were separated and stored at -80°C. ELISA assays were performed to determine anti-collagen antibody concentrations. Spleen and lymph nodes were removed at sacrifice, and single cell suspensions prepared therefrom. Mitogen responses to Con A and LPS, as well as antigen-specific responses to type-II collagen, were determined. Appropriate statistical comparisons (Chi square, Student's T-test and non-parametric median comparisons) were performed using SPSS/PC software to assess the influence of CT-112 (SEQ. ID NO: 1) at both low and high doses on the incidence, onset, severity and progression of collagen-induced arthritis, the antibody response to collagen, T-cell and B-cell mitogen responses, and T-cell specific responses to type-II collagen.

[3] = system: mouse bone marrow polychromatic erythrocyte; experiment: mouse bone marrow polychromatic erythrocyte micronucleus assay; type: in vivo; details: 62.5, 125 and 250 mg/kg; after 24, 48 or 72 hr
acute toxicity in mice = type: in vivo; details: intravenous 100, 500 or 1,000 mg/kg
Experimental: Acute toxicity of CT-112 (SEQ. ID NO: 1) in mice and rats was assessed. Mice were dosed by intravenous injection with CT-112 (SEQ. ID NO: 1) at 100, 500 or 1,000 mg/kg.

acute toxicity in rats = type: in vivo; details: rats, 100, 500 or 1,000 mg/kg
Experimental: Rats were dosed with CT-112 (SEQ. ID NO: 1) at 100, 500 or 1,000 mg/kg. […] All rats returned to normal appearance the day after treatment.

SMILES: CC(C)[C@H](NC(=O)[C@H](CCC(N)=O)NC(=O)[C@H](CO)NC(=O)[C@@H](NC(=O)[C@@H](N)[C@@H](C)O)[C@@H](C)O)C(=O)N[C@@H](CCCNC(=N)N)C(=O)N1CCC[C@H]1C(=O)N[C@@H](CCCNC(=N)N)C(=O)O [CT-112, Thr-Thr-Ser-Gln-Val-Arg-Pro-Arg] (H-TTSQVRPR-OH)
- Myeloperoxidase Activity ([1]; 0.05 mg/animal/day): 19.6 ± 15.6 µmole of chromophore formed/min
- Myeloperoxidase Activity ([1]; 0.1 mg/animal/day): 17.0 ± 9.6 µmole of chromophore formed/min
- Myeloperoxidase Activity ([1]; 1.0 mg/animal/day): 14.7 ± 13.3 µmole of chromophore formed/min
- chemotactic migration of neutrophils to f-Met-Leu-Phe (neutrophils): effectively inhibited
- Absolute Cell Number Lymphocytes (Inflammatory Cell Influx; 24 hr post carrageenan): 16.9 ± 5.9
- Absolute Cell Number Macrophages (Inflammatory Cell Influx; 24 hr post carrageenan): 19.5 ± 10
- Absolute Cell Number Neutrophils (Inflammatory Cell Influx; 24 hr post carrageenan): 106 ± 29
- Absolute Cell Number Lymphocytes (Inflammatory Cell Influx; 48 hr post carrageenan): 12.5 ± 7.6
- Absolute Cell Number Macrophages (Inflammatory Cell Influx; 48 hr post carrageenan): 126 ± 43
- Absolute Cell Number Neutrophils (Inflammatory Cell Influx; 48 hr post carrageenan): 134 ± 77
- Absolute Cell Number Lymphocytes (Inflammatory Cell Influx; 72 hr post carrageenan): 45.1 ± 42
- Absolute Cell Number Macrophages (Inflammatory Cell Influx; 72 hr post carrageenan): 255 ± 125
- Absolute Cell Number Neutrophils (Inflammatory Cell Influx; 72 hr post carrageenan): 48.4 ± 28
- LTB4 (leukotriene B4 (LTB4)): 16.8 ± 11.5(5) pg in peritoneal lavage
- Antibody reduction (anti-collagen antibody titer in mouse serum) ([2]; 4 wks post-immunization, high dose group, p=0.028): statistically significant
- effects on synovitis and pannus ([2]; both high and low doses): not significant
- disease-induced joint erosion (histopathology) ([2]; both high and low doses, FIGURE 13): reducing
- disease-induced loss of joint architecture (histopathology) ([2]; both high and low doses, p ≤ 0.05, FIGURE 13): significantly reducing
- Spleen cell response to Con A and to LPS ([2]; cells from treated mice): neither immunosuppression nor immunoactivation
- final incidence of CIA ([2]; high dose, 100 mg/kg daily): 50%
- onset of arthritis ([2]; low (10 mg/kg) and high (100 mg/kg) daily doses, compared to control mice): somewhat retarded
- antibody titers at the conclusion of the trial ([2]; low dose group vs control mice): significantly higher
- final incidence of CIA ([2]; low dose, 10 mg/kg daily): 62.5%
- involved paws characterized as in remission at the conclusion of the trial ([2]; low dose, 10 mg/kg daily): 25%
- progression of arthritis to paws ([2]; low dose, 10 mg/kg daily, p=0.035 vs control): significantly fewer paws
- Maximum paw swelling ([2]; mouse, in vivo): not influenced
- weight gain ([2]; mouse, in vivo): gained weight at the same rate
- Cellular responses to mitogens and antigen (type-II collagen) in lymph node cells ([2]; treated mice vs control animals): similar
- micronuclei [3]: did not induce a significant increase
- lesions at necropsy (acute toxicity in mice): No lesions were visible
- mean body weight or mean body weight gain (acute toxicity in mice; control vs treated): no statistical differences
- clinical effects (acute toxicity in mice; one mouse at 500 and two at 1,000 mg/kg, day of treatment): Minimal transient clinical effects (hypoactivity and hypersensitivity)
- lesions at necropsy (acute toxicity in rats): No lesions were visible
- mean body weight or mean body weight gain (acute toxicity in rats; control vs treated): no statistical differences
- clinical effects (acute toxicity in rats; several rats at 500 and 1,000 mg/kg, day of treatment): Transient clinical effects (hypoactivity, hypersensitiviy, staggered gait, cyanosis and absence of righting reflex)
